Experiments:
Assay in all cases: KINOMEscan competition binding
Settings in all cases: compound 10.0 µM
[1] = molecular target: MARK2 (human) (UniProt Q7KZI7)
[2] = molecular target: PRKG2 (human) (UniProt Q13237)
[3] = molecular target: PLK2 (human) (UniProt Q9NYY3)
[4] = molecular target: ACVR2A (human) (UniProt P27037)
[5] = molecular target: CDC42BPB (human) (UniProt Q9Y5S2)
[6] = molecular target: PRKX (human) (UniProt P51817)
[7] = molecular target: PAK6 (human) (UniProt Q9NQU5)
[8] = molecular target: DCLK1 (human) (UniProt O15075)
[9] = molecular target: ERN1 (human) (UniProt O75460)
[10] = molecular target: FGFR4 (human) (UniProt P22455)
[11] = molecular target: BMPR1A (human) (UniProt P36894)
[12] = molecular target: DDR1 (human) (UniProt Q08345)
[13] = molecular target: PAK4 (human) (UniProt O96013)
[14] = tested on: MET (human), P08581 [M1250T]
[15] = molecular target: IRAK3 (human) (UniProt Q9Y616)
[16] = molecular target: EPHB3 (human) (UniProt P54753)
[17] = molecular target: MAP3K4 (human) (UniProt Q9Y6R4)
[18] = molecular target: PHKG2 (human) (UniProt P15735)
[19] = molecular target: CSNK1D (human) (UniProt P48730)
[20] = molecular target: NTRK1 (human) (UniProt P04629)
[21] = molecular target: MAP3K12 (human) (UniProt Q12852)
[22] = molecular target: MARK1 (human) (UniProt Q9P0L2)
[23] = molecular target: MAP2K1 (human) (UniProt Q02750)
[24] = molecular target: RPS6KA5 KD1 (human) (UniProt O75582)
[25] = molecular target: CDK7 (human) (UniProt P50613)
[26] = molecular target: SRPK3 (human) (UniProt Q9UPE1)
[27] = molecular target: CDK15 (human) (UniProt Q96Q40)
[28] = molecular target: HIPK3 (human) (UniProt Q9H422)
[29] = molecular target: STK4 (human) (UniProt Q13043)
[30] = molecular target: AKT1 (human) (UniProt P31749)
[31] = molecular target: PRKCQ (human) (UniProt Q04759)
[32] = molecular target: MLTK (human) (UniProt Q9NYL2)
[33] = molecular target: RIPK4 (human) (UniProt P57078)
[34] = molecular target: IRAK4 (human) (UniProt Q9NWZ3)
[35] = molecular target: ULK2 (human) (UniProt Q8IYT8)
[36] = molecular target: ACVR1B (human) (UniProt P36896)
[37] = molecular target: TLK1 (human) (UniProt Q9UKI8)
[38] = molecular target: CAMKK2 (human) (UniProt Q96RR4)
[39] = molecular target: ERBB4 (human) (UniProt Q15303)
[40] = molecular target: PRKACA (human) (UniProt P17612)

Sequence of PRKG2 (human) (Q13237 whole entry, looked up): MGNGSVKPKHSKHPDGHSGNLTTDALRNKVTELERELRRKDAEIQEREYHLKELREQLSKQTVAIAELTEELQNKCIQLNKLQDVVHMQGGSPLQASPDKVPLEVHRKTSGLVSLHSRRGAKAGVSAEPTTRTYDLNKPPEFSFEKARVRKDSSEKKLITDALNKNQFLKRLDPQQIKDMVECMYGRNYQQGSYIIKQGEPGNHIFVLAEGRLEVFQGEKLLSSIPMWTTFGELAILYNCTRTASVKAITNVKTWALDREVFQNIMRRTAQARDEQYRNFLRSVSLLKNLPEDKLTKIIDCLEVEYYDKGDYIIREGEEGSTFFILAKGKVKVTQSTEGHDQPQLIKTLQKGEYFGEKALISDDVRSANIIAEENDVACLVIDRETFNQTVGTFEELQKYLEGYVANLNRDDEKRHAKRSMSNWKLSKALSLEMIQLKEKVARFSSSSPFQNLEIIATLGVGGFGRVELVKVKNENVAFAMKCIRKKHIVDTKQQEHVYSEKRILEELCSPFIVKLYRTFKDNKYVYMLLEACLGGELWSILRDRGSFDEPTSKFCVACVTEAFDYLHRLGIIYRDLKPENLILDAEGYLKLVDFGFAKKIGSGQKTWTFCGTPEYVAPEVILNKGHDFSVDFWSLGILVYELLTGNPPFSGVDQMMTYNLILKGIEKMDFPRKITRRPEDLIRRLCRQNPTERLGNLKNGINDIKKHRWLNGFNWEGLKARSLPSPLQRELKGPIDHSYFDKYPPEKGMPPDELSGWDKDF
Sequence of EPHB3 (human) (P54753 whole entry, looked up): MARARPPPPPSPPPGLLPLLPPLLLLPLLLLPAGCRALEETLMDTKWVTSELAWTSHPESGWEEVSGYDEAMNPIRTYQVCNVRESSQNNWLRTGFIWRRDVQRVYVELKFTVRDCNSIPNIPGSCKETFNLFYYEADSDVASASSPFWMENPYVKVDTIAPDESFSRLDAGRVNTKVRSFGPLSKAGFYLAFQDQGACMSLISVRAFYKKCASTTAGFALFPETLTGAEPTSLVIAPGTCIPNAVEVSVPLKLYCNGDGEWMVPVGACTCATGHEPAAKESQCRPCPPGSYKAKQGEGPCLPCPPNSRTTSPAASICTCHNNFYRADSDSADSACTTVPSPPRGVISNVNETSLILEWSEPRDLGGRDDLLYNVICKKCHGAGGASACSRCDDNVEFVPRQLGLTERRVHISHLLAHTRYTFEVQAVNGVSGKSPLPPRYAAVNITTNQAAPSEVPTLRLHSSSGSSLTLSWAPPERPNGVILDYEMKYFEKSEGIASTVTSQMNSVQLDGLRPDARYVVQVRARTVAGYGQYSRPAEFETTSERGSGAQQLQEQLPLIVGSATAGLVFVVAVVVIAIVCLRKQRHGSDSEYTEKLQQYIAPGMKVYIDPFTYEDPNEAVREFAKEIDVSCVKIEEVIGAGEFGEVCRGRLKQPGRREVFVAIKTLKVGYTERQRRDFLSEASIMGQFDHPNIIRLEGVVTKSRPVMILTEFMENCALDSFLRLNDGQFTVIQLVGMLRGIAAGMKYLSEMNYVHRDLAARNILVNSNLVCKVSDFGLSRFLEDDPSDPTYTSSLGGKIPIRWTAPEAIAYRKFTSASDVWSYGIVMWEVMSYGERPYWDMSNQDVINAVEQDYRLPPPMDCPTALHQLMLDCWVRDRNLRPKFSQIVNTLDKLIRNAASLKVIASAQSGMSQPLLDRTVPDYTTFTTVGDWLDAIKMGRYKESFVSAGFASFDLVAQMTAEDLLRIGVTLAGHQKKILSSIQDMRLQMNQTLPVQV
Sequence of DCLK1 (human) (O15075 whole entry, looked up): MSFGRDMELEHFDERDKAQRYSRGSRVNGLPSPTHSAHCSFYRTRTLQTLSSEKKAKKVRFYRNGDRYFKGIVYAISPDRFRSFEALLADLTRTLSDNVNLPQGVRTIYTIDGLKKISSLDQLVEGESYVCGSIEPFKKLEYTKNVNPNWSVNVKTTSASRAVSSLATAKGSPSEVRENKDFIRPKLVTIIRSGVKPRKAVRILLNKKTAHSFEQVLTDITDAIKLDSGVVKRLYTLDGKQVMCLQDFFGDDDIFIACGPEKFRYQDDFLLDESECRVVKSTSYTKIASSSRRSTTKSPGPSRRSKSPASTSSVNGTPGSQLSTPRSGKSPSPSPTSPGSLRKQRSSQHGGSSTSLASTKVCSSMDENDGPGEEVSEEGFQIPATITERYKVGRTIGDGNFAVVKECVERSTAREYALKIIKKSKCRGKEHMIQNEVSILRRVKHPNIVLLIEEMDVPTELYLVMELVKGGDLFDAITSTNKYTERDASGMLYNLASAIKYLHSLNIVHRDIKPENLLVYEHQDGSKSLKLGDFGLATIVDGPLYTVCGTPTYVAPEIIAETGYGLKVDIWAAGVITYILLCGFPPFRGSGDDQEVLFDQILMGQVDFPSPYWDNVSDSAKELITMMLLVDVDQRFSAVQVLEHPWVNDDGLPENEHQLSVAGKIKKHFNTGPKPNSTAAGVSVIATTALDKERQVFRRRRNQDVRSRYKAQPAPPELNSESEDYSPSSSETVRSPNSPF
Sequence of ULK2 (human) (Q8IYT8 whole entry, looked up): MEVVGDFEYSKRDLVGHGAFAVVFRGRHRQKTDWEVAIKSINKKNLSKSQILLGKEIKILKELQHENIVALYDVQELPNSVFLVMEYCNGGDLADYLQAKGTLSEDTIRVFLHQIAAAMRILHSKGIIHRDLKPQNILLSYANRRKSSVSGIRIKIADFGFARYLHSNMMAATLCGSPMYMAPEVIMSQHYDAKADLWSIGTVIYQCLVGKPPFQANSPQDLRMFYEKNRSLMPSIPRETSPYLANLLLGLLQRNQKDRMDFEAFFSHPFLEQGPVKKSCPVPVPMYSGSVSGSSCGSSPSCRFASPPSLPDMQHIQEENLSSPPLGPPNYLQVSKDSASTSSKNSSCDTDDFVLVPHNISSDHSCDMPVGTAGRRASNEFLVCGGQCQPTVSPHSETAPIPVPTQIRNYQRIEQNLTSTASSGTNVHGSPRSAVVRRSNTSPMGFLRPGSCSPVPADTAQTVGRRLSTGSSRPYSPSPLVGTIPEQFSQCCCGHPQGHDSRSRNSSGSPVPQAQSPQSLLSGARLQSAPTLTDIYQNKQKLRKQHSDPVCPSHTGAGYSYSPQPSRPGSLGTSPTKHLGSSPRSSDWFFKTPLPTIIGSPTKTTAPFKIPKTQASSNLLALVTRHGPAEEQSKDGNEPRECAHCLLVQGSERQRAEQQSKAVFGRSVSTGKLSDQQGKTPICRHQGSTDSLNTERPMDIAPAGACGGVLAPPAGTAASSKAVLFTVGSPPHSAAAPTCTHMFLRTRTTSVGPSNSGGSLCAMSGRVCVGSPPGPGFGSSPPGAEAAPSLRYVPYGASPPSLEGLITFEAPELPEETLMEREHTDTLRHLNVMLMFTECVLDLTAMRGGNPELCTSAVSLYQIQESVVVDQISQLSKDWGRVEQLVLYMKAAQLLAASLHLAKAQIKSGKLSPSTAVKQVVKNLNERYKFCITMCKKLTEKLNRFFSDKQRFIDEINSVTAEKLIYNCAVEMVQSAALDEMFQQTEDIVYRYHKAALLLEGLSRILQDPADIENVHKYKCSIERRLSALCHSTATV
Sequence of IRAK3 (human) (Q9Y616 whole entry, looked up): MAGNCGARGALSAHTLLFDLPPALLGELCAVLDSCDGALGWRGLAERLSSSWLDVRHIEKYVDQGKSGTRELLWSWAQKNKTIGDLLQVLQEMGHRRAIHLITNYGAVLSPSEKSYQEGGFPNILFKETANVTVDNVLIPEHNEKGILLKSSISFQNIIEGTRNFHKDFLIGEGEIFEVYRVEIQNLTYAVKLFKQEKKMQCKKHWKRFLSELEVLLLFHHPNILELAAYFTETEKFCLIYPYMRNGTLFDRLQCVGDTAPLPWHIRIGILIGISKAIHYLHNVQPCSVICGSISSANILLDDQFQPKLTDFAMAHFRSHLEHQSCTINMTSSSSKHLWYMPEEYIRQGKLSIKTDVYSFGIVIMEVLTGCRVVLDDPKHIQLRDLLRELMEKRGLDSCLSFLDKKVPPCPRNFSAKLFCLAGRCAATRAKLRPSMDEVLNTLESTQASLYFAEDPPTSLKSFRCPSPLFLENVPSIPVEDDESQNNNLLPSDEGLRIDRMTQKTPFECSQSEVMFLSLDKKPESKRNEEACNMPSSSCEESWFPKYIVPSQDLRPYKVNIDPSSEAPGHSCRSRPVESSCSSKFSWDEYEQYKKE
Sequence of FGFR4 (human) (P22455 whole entry, looked up): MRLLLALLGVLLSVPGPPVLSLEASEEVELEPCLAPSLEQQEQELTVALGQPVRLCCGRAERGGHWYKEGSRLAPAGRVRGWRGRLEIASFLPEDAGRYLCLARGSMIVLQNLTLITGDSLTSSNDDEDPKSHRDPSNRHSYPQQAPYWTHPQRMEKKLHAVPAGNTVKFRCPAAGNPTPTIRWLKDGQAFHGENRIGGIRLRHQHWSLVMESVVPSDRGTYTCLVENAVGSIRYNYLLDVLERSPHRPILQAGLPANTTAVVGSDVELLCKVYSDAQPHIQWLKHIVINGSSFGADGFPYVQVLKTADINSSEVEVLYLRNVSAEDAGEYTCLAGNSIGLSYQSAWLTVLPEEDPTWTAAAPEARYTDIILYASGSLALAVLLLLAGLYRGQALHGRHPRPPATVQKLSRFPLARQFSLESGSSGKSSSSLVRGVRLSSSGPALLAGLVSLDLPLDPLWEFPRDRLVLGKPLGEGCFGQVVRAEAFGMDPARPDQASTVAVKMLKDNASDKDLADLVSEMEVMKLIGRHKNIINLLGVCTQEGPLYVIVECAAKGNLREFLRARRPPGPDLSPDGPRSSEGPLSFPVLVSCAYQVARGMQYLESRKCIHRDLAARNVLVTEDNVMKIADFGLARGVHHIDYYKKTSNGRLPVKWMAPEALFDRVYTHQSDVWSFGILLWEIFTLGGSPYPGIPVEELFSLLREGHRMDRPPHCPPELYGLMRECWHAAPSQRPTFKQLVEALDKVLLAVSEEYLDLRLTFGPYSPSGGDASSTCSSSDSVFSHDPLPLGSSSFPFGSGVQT

SMILES	kinase still bound, per cent of control [1] [%]	kinase still bound, per cent of control [2] [%]	kinase still bound, per cent of control [3] [%]	kinase still bound, per cent of control [5] [%]	kinase still bound, per cent of control [6] [%]	kinase still bound, per cent of control [7] [%]	kinase still bound, per cent of control [8] [%]	kinase still bound, per cent of control [9] [%]	kinase still bound, per cent of control [11] [%]	kinase still bound, per cent of control [12] [%]	kinase still bound, per cent of control [15] [%]	kinase still bound, per cent of control [16] [%]	kinase still bound, per cent of control [18] [%]	kinase still bound, per cent of control [19] [%]	kinase still bound, per cent of control [20] [%]	kinase still bound, per cent of control [21] [%]	kinase still bound, per cent of control [22] [%]	kinase still bound, per cent of control [23] [%]	kinase still bound, per cent of control [25] [%]	kinase still bound, per cent of control [26] [%]	other results
CC1=C(C(=O)Nc2cc3cn[nH]c3cc2F)C(c2ccc(C(F)(F)F)cc2)CC(=O)N1 (stereo unspecified)	99	29	86	22	14	90	65	71	17	100	85	84	92	92	91	69	100	73	58	98	kinase still bound, per cent of control [4]: 88%; kinase still bound, per cent of control [10]: 67%; kinase still bound, per cent of control [13]: 85%; kinase still bound, per cent of control [14]: 23%; kinase still bound, per cent of control [17]: 97%; kinase still bound, per cent of control [24]: 88%; kinase still bound, per cent of control [27]: 84%; kinase still bound, per cent of control [28]: 85%; kinase still bound, per cent of control [29]: 100%; kinase still bound, per cent of control [30]: 76%; kinase still bound, per cent of control [31]: 54%; kinase still bound, per cent of control [32]: 92%; kinase still bound, per cent of control [33]: 98%; kinase still bound, per cent of control [34]: 97%; kinase still bound, per cent of control [35]: 85%; kinase still bound, per cent of control [36]: 94%; kinase still bound, per cent of control [37]: 90%; kinase still bound, per cent of control [38]: 55%; kinase still bound, per cent of control [39]: 41%
COc1cc2c(Nc3ccc(NC(=O)c4ccccc4)cc3)ncnc2cc1OCCCN1CCOCC1	81	91	100	100	81	95	73	74	37	36	17	100	76	71	16	35	100	0.1	6.5	100	kinase still bound, per cent of control [4]: 100%; kinase still bound, per cent of control [40]: 100%; kinase still bound, per cent of control [10]: 100%; kinase still bound, per cent of control [13]: 100%; kinase still bound, per cent of control [17]: 62%; kinase still bound, per cent of control [24]: 100%; kinase still bound, per cent of control [27]: 68%; kinase still bound, per cent of control [28]: 52%; kinase still bound, per cent of control [29]: 78%; kinase still bound, per cent of control [30]: 100%; kinase still bound, per cent of control [31]: 100%; kinase still bound, per cent of control [32]: 34%; kinase still bound, per cent of control [33]: 56%; kinase still bound, per cent of control [34]: 51%; kinase still bound, per cent of control [35]: 91%; kinase still bound, per cent of control [36]: 100%; kinase still bound, per cent of control [37]: 78%; kinase still bound, per cent of control [38]: 81%; kinase still bound, per cent of control [39]: 0.65%
CCOc1cc(N2CCC(O)CC2)ccc1Nc1ncc2c(n1)N(C)c1ccccc1C(=O)N2C	100	100	100	100	100	100	0.9	100	100	100	100	100	100	100	100	100	100	100	100	100	kinase still bound, per cent of control [4]: 100%; kinase still bound, per cent of control [40]: 100%; kinase still bound, per cent of control [10]: 100%; kinase still bound, per cent of control [13]: 100%; kinase still bound, per cent of control [14]: 100%; kinase still bound, per cent of control [17]: 100%; kinase still bound, per cent of control [24]: 100%; kinase still bound, per cent of control [27]: 100%; kinase still bound, per cent of control [28]: 100%; kinase still bound, per cent of control [29]: 100%; kinase still bound, per cent of control [30]: 100%; kinase still bound, per cent of control [31]: 100%; kinase still bound, per cent of control [32]: 100%; kinase still bound, per cent of control [33]: 100%; kinase still bound, per cent of control [35]: 100%; kinase still bound, per cent of control [36]: 100%; kinase still bound, per cent of control [37]: 100%; kinase still bound, per cent of control [38]: 100%; kinase still bound, per cent of control [39]: 100%
CC(=O)c1c(C)c2cnc(Nc3ccc(N4CCNCC4)cn3)nc2n(C2CCCC2)c1=O	28	65	14	91	90	66	2.9	34	42	60	36	91	5	22	6.5	47	35	20	12	23	kinase still bound, per cent of control [40]: 100%; kinase still bound, per cent of control [14]: 41%; kinase still bound, per cent of control [27]: 39%; kinase still bound, per cent of control [28]: 2.1%; kinase still bound, per cent of control [29]: 74%; kinase still bound, per cent of control [30]: 92%; kinase still bound, per cent of control [31]: 68%; kinase still bound, per cent of control [33]: 79%; kinase still bound, per cent of control [34]: 39%; kinase still bound, per cent of control [35]: 0%; kinase still bound, per cent of control [36]: 96%; kinase still bound, per cent of control [37]: 42%; kinase still bound, per cent of control [38]: 20%; kinase still bound, per cent of control [39]: 83%
